Earlier results on 1 compound are cited in patent publication US20210329918A1, “AQUEOUS COMPOSITIONS OF TOPRAMEZONE” (BASF SE, priority 2018, published 2021).

SMILES strings stand for the structures.

For the data set the following is noted: 25° C.

As to `Cc1c(C(=O)c2cnn(C)c2O)ccc(S(C)(=O)=O)c1C1=NOCC1` [topramezone, 4-[3-(4,5-dihydro-1,2-oxazol-3-yl)-2-methyl-4-methylsulfonylbenzoyl]-2-methyl-1H-pyrazol-3-one], the “solubility of topramezone in water” value is “about 0.305 g/L”.
